Measured values: patent publication US20150322033A1, “ANTIBACTERIAL AGENT” (priority 2012, published 2015)
In brackets after ≈: the same amount, converted by molar mass. Like-named read-outs stand apart in the source and are kept apart here.

Key:
[1] = system: levofloxacin-susceptible Staphylococcus aureus strain MS5935-1; assay: Emergence frequency of levofloxacin-resistant Staphylococcus aureus on agar plate medium; type: cell-based; conditions: for Emergence frequency of levofloxacin resistance mutation (mutations/genera): FALCOR
Source text: Emergence frequency of levofloxacin-resistant Staphylococcus aureus was examined in the presence or absence of apigenin by using a levofloxacin-susceptible Staphylococcus aureus strain according to the following method.
(§1) The levofloxacin-susceptible Staphylococcus aureus strain MS5935-1 (strain in which the 80th serine residue from the amino terminus of the wild-type topoisomerase IV encoded by parC is mutated with phenylalanine residue, see, Hiramatsu K., Igarashi M., Morimoto Y, Baba T., Umekita M., Akamatsu Y., Int. J. Antimicrob. Agents, 2012 June; 39(6), 478-85) was cultured overnight at 37° C. with shaking in 4 mL of TBS (produced by Dickinson). After completion of the culture, the cells were suspended in fresh TBS, and the cell suspension was adjusted to have an absorbance of 0.3 measured at 578 nm. Then, the cell suspension was diluted 10,000 times with TBS. This diluted cell suspension was inoculated (0.1 mL each) into ten test tubes containing 4 mL each of TBS, and preculture was carried out overnight at 37° C.
Levofloxacin was dissolved in sterilized water at a concentration of 40 mg/L. This solution of levofloxacin was added on plates in a volume of 1 mL/plate, and 9 mL of M-H (Mueller Hinton) Agar (produced by Becton, Dickinson and Company) was added to each plate. Five of such plates were prepared. […]
Number of the colonies formed on each agar plate medium after the culture of 2 days was counted. The emergence frequency of levofloxacin-resistant Staphylococcus aureus was calculated according to the following equation using the number of colonies and the number of bacterial cells inoculated onto each agar plate medium (CFU, colony forming unit). Further, from the calculated emergence frequency of the levofloxacin-resistant Staphylococcus aureus, emergence frequency of levofloxacin resistance mutation and 95% confidence interval (CI range) were calculated by using FALCOR (Fluctuation AnaLysis CalculatOR, http://www.keshaysingh.org/protocols/FALCOR.html, see, Hall B. M. et al., Bioinformatics., 2009, 25(12), 1564-5). […]

S. aureus Mu50 = assay: microbe, parasite or virus in culture; type: cell-based, Staphylococcus aureus; conditions: for MIC ratio: (MIC value for S. aureus FDA209P)/(MIC value for S. aureus Mu50); for MIC: Staphylococcus aureus
How it was run: (§2)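 Overnight TSB cultures at 37 °C adjusted to A578 0.3, diluted 500-fold in CAMHB and mixed 1:1 with compound in CAMHB; static overnight incubation at 37 °C. MIC reported in mg/L; Mu50 NR-1 also tested in some runs.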

[2] = system: S. aureus FDA209P (ATCC 6538P); assay: microbe, parasite or virus in culture; type: cell-based, Staphylococcus aureus; conditions: Staphylococcus aureus
How it was run: as §2

S. aureus MS5935-1 = assay: MIC for S. aureus MS5935-1; type: cell-based; conditions: Staphylococcus aureus, MS59351
Method: as §1

[3] = MU50, read-out: MIC (mg/L) S. aureus Mu50, Example 2, Table 12
[4] = Example 2, Table 12, read-out: MIC (mg/L) S. aureus FDA209P
[5] = Example 3, Table 13, read-out: MIC (mg/L) FDA209P (w, w)
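Wherever MIC ratio is given: ratio is FDA209P MIC divided by Mu50 MIC.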

Structure (SMILES) | Emergence frequency of levofloxacin resistance mutation (mutations/genera) ([1]; agar plate medium with LVFX 4 mg/L, apigenin 0) | MIC ratio (S. aureus Mu50) | MIC (S. aureus Mu50; [3]) [mg/L] | MIC [2, 4] [mg/L] | MIC [2, 5] [mg/L] | MIC (S. aureus MS5935-1) [µg/mL] | Emergence frequency of levofloxacin resistance mutation, medium with levofloxacin and apigenin / medium with levofloxacin ([1]; LVFX 4 mg/L, apigenin 32 mg/L) | Emergence frequency of levofloxacin resistance mutation (mutations/genera) ([1]; agar plate medium with LVFX 4 mg/L and apigenin 32 mg/L) | MIC ratio (S. aureus Mu50; listed as apigenin) | MIC (S. aureus Mu50; MU50, read-out: MIC (mg/L) Mu50, Example 1, Tables 1 to 10) [mg/L] | MIC ([2]; Example 1, Tables 1 to 10, read-out: MIC (mg/L) FDA209P) [mg/L]
C[C@H]1COc2c(N3CCN(C)CC3)c(F)cc3c(=O)c(C(=O)O)cn1c23 [Levofloxacin, levofloxacin, reference compound] | 1.45 × 10^−9 mutations/genera | 0.016 | 8 (≈ 22.1 µM) | 0.125 (≈ 0.346 µM) | 0.125 (≈ 0.346 µM) | 0.5 (≈ 1.38 µM) | – | – | – | – | –
O=c1cc(-c2ccc(O)cc2)oc2cc(O)cc(O)c12 [No. 7, 4′,5,7-Trihydroxyflavone] | – | >32 | 4 (≈ 14.8 µM) | > 128 | > 128 | > 128 | 1/29 | 0.05 × 10^−9 mutations/genera | ≥ 32 | 4 (≈ 14.8 µM) | > 128
